Test results published in patent publication US10286033B2, “Methods and compositions comprising desmopressin in combination with an alpha-adrenergic receptor antagonist” (Serenity Pharmaceuticals, LLC, priority 2014, dated 2019).
Marks after values point to notes of the source that are not given here.

How the values were obtained:
[1] = Clinical study of desmopressin nasal spray on the occurrence of nocturnal voiding (Responder / Non-Responder); type: in vivo, human
Method: A clinical study was performed to evaluate the impact of administering desmopressin in combination with an alpha-adrenergic receptor antagonist alone or together with a 5-alpha reductase inhibitor to reduce the occurrence of nocturnal voiding by a patient. Experimental procedures and results are described below. […] Patients received as a nasal spray either (i) a 1.5 μg dosage of desmopressin or (ii) placebo. The desmopressin nasal spray (or placebo) was administered daily just prior to bedtime for a duration of twelve weeks. In addition, patients previously diagnosed as suffering from benign prostatic hyperplasia (BPH) and receiving an alpha-adrenergic receptor antagonist alone or together a 5-alpha reductase inhibitor for treatment of BPH continued to receive the alpha-adrenergic receptor antagonist alone or together the 5-alpha reductase inhibitor at the same dosage and frequency used prior to enrollment in this study. All patients in this study who received an alpha-adrenergic receptor antagonist alone or together a 5-alpha reductase inhibitor for treatment of their BPH had been receiving the alpha-adrenergic receptor antagonist alone or together the 5-alpha reductase inhibitor for at least 2 months before enrollment in this study and experienced on average at least two nocturnal voids per night before enrollment in this study. The desmopressin nasal spray was prepared by combining aliquots of an Emulsion Stock Solution and a Buffer Solution as described below. To produce an emulsion stock solution, the following ingredients in parts by weight are added to a vessel equipped with a stirring bar, and mixed for 15 minutes at 60-65° C.: (i) 180 parts sorbitan monolaurate (Span-20) aqueous solution (12 mg/mL); (ii) 30 parts Polysorbate 20 (Tween-20) aqueous solution (2 mg/mL); (iii) 400 parts cottonseed oil aqueous emulsion (26.6 mg/mL); (iv) 600 parts cyclopentadecanolide (CPE-215) aqueous emulsion (40 mg/mL); and (v) water to produce 1,500 grams total batch size. After mixing, the preparation is homogenized using a high speed mixture at 6500 RPM+ for 20-25 minutes to produce a fine emulsion. This solution is autoclaved to assure sterility. To produce a citric acid buffer stock solution, the following ingredients in parts by weight are added to a vessel equipped with a stirring bar, and mixed for 5 minutes at 60-65° C.: (i) 6200 parts water; (ii) 16 parts anhydrous citric acid aqueous solution (1.85 mg/mL); (iii) 76 parts sodium citrate, dihydrate aqueous solution (8.9 mg/mL); (iv) 104 parts Polysorbate 20 (Tween-20) aqueous solution (12 mg/mL); and (v) water to produce 8,500 grams total batch size. To produce a desmopressin stock solution, 0.111 part desmopressin acetate trihydrate is added to sufficient buffer stock solution to produce 100.0 mL of solution, and stirred until all the desmopressin is dissolved to produce a stock solution having a concentration of 100 μg desmopressin/mL. From this stock solution a 30 μg/mL solution was prepared by dilution. To produce the desmopressin nasal spray, aliquots of the 30 μg/mL solution were filtered to eliminate any bacterial contamination and diluted with an equal volume of emulsion stock solution to produce aseptic, preservative free dose forms comprising 15 μg/mL desmopressin, pH 5.5, containing 2% cyclopentadecanolide. These were bottled in sterile pump spray bottles fitted with a Pfeiffer APF pump sprayers that deliver 100 μL per metered spray (i.e., 1.5 μg desmopressin (i.e., 1500 ng desmopressin) per spray). The liquid contains no detectable microorganisms. Patients recorded the occurrence of nocturnal voids during the study period. Patients were designated to be a “Responder” if after receiving treatment there was a reduction in the average number of nocturnal voids during the treatment period.

[2] = human, in vivo; cited from earlier work
[3] = BPH patients also receiving alpha-adrenergic receptor antagonist and 5-alpha reductase inhibitor, 1.5 μg nasal spray, 12 weeks, n = 21
[4] = BPH patients on alpha-adrenergic receptor antagonist alone or together with 5-alpha reductase inhibitor, n = 21
[5] = BPH patients, no alpha-adrenergic receptor antagonist or 5-alpha reductase inhibitor, n = 42
[6] = male patients without BPH, desmopressin only, n = 34

SMILES: NC(=O)CC[C@@H]1NC(=O)[C@H](Cc2ccccc2)NC(=O)[C@H](Cc2ccc(O)cc2)NC(=O)CCSSC[C@@H](C(=O)N2CCC[C@H]2C(=O)N[C@H](CCCN=C(N)N)C(=O)NCC(N)=O)NC(=O)[C@H](CC(N)=O)NC1=O [Desmopressin, 1-desamino-8-D-arginine vasopressin]
- Non-Responder Patients: Number of Patients that Received Desmopressin ([1]; BPH patients also receiving alpha-adrenergic receptor antagonist (one patient also on an anticholinergic agent), 1.5 μg nasal spray, 12 weeks, n = 21): 7**
- Non-Responder Patients: Number of Patients that Received Desmopressin [1, 3]: 2
- Responder Patients: Number of Patients that Received Desmopressin [1, 3]: 5
- Responder Patients: Number of Patients that Received Desmopressin ([1]; BPH patients also receiving alpha-adrenergic receptor antagonist, 1.5 μg nasal spray daily before bedtime, 12 weeks, n = 21 desmopressin group): 7
- Difference in Responder Response Rate Between Desmopressin-treated Patients & Those Receiving Placebo ([1]; BPH patients on alpha-adrenergic receptor antagonist alone or together with 5-alpha reductase inhibitor): 31%
- Difference in Responder Response Rate Between Desmopressin-treated Patients & Those Receiving Placebo ([1]; BPH patients on alpha-adrenergic receptor antagonist alone or together with 5-alpha reductase inhibitor, listed as desmopressin): 31%
- Non-Responder Patients: Total Number of Patients that Received Desmopressin [1, 4]: 9
- Percent Total Non-Responder Patients receiving desmopressin [1, 4]: 43%
- Percent Total Responder Patients (absolute response rate) receiving desmopressin [1, 4]: 57%
- Responder Patients: Total Number of Patients that Received Desmopressin [1, 4]: 12
- Percent Total Responder Patients (absolute response rate) receiving desmopressin ([1]; BPH patients on alpha-adrenergic receptor antagonist alone or together with 5-alpha reductase inhibitor, n = 21, listed as desmopressin): 57%
- Difference in Responder Response Rate Between Desmopressin-treated Patients & Those Receiving Placebo ([1]; BPH patients, no alpha-adrenergic receptor antagonist or 5-alpha reductase inhibitor): 14%
- Difference in Responder Response Rate Between Desmopressin-treated Patients & Those Receiving Placebo ([1]; BPH patients, no alpha-adrenergic receptor antagonist or 5-alpha reductase inhibitor, listed as desmopressin): 14%
- Non-Responder Patients: Number of Patients that Received Desmopressin [1, 5]: 24
- Percent Total Non-Responder Patients receiving desmopressin [1, 5]: 57%
- Percent Total Responder Patients (absolute response rate) receiving desmopressin [1, 5]: 43%
- Responder Patients: Number of Patients that Received Desmopressin [1, 5]: 18
- Percent Total Responder Patients (absolute response rate) receiving desmopressin ([1]; BPH patients, no alpha-adrenergic receptor antagonist or 5-alpha reductase inhibitor, n = 42, listed as desmopressin): 43%
- Reduction in occurrence of nocturnal voiding, combination compared with single treatments (in words) ([1]; desmopressin with alpha-adrenergic receptor antagonist alone or together with 5-alpha reductase inhibitor, versus desmopressin alone or the antagonist(s) without desmopressin): greater percentage of patients experiencing a reduction in the occurrence of nocturnal voiding
- Difference in Responder Response Rate Between Desmopressin-treated Patients & Those Receiving Placebo ([1]; male patients without BPH, desmopressin only): 18%
- Difference in Responder Response Rate Between Desmopressin-treated Patients & Those Receiving Placebo ([1]; male patients without BPH, desmopressin only, listed as desmopressin): 18%
- Non-Responder Patients: Number of Patients that Received Desmopressin [1, 6]: 16
- Percent Total Non-Responder Patients receiving desmopressin [1, 6]: 47%
- Percent Total Responder Patients (absolute response rate) receiving desmopressin [1, 6]: 53%
- Responder Patients: Number of Patients that Received Desmopressin [1, 6]: 18
- Percent Total Responder Patients (absolute response rate) receiving desmopressin ([1]; male patients without BPH, desmopressin only, n = 34, listed as desmopressin): 53%
- half-life (known clearance rate) [2]: 1.5 to 2.0 h
